Assay [1] concerns HepG2 cells. The assay can be described thus: MTT assay on HepG2 cells. The assay is classed as cell-based. The settings on record: Homo sapiens, mean of three experiments, read-out: HepG2 percentage inhibitory rate.
Assay [2] has as its system LDL uptake of HepG2 cells. The assay can be described thus: Fluorescent LDL uptake assay in the presence of PCSK9. The assay is classed as cell-based, human. The settings on record: PCSK9 treatment group 29.82%. The procedure: Extracellular LDL uptake assay was performed to evaluate the functional effects of PCSK9/LDLR PPI inhibition. The effects of active compounds in improving the capacity of HepG2 cells to uptake the fluorescent LDL were investigated using SBC-115337 as the positive control. […] The tested compound A12, B1, B3, B4 and B14 strengthened the ability of HepG2 cells to absorb LDL from 29.82% of the PCSK9 treatment group up to 32.78%, 33.29%, 39.58%, 36.24% and 42.41% at the doses of 5 µM, and 44.80%, 47.15%, 50.67%, 49.94 and 64.27% at the doses of 10 µM, respectively.
HepG2 cells (2 × 10^4 cells per well) were seeded in black 96-well plates and cultured for more than 24 h. The following day, cells were treated with 4.0 μg/ml K9 alone and the tested compounds with the presence of 4.0 μg/ml of K9, and vehicle (PBS) for 8 h. At the end of the treatments, the culture medium was replaced with 50.0 μl/well LDL-DyLight™ 550 working solution (Cayman Chemical Company, US). The cells were additionally incubated for 16 h at 37 °C. Then the cells were washed with PBS one time, then added PBS with 100.0 μl/well. The degree of LDL uptake was measured using a plate reader (EnSpire, Perkin Elmer Corporation) at excitation wavelengths 540 nm and emission wavelengths 570 nm.

Assay [3] concerns the target PCSK9/LDLR PPI (Homo sapiens, UniProt Q8NBP7). The assay can be described thus: PCSK9-LDLR TR-FRET assay (PCSK9/LDLR PPI inhibitory screening). Format: binding. The following applies: for inhibition at 10 µM: mean of three experiments, read-out: PCSK9 percentage inhibitory rate. Here is the method:
The PCSK9/LDLR time-resolved fluorescence resonance energy transfer (TR-FRET) assay was performed to evaluate the activity of synthesised compounds in inhibition of PCSK9-LDLR binding. The A series compounds were firstly synthesised for the PCSK9/LDLR PPI inhibitory test. […] Therefore, a group of A12 derivatives (B series) were synthesised with 4-chlorobenzyl substituted in the amino group and various substitutions introduced to the carboxylic group. […] To confirm whether the 4-chloromethyl group is essential for the PPI inhibitory activity, a new series of compounds (C series) were synthesised with the 4-chloromethyl group replaced by 4-methoxymethyl moiety. The inhibitory activity was observed, most likely resulting from the 4-methoxymethyl substitution (Table 3).
The compounds were dissolved in 100% DMSO; then 2 µL of the dilution was added to a 20 µL of reaction to keep […] in all of reactions. The binding reaction was conducted at room temperature. The reaction mixture in assay buffer contains PCSK9, the indicated amount of the inhibitor, ligand LDLR, and the reaction dyes. The reaction mixture was incubated for 120 min before detection of the TR-FRET signal. Fluorescence signals for both the donor and acceptor dyes were measured using a Tecan Infinite M1000 plate reader. TR-FRET was recorded as the ratio of the fluorescence of the acceptor and the donor dyes (acceptor/donor). The TR-FRET data were analysed using Graphpad Prism software.
Background: TR-FRET usually uses a lanthanide donor and a delayed reading to cut background.

Assay [4] has as its system LDLR level on the surface of HepG2 cells. The assay can be described thus: LDLR expression assay, In-Cell Western (ICW), in the presence of PCSK9. Format: cell-based, human. The following applies: HepG2 cells in the presence of PCSK9, compared with positive control SBC-115337. The procedure: LDLR is degraded in lysosomes by binding to PCSK9. Thus, inhibition of PCSK9/LDLR PPI could increase the LDLR level on the surface of hepatocytes. In the current study, human hepatic HepG2 cells were selected for the investigation of the active compounds for LDLR expression. SBC-115337, developed by Shifa Biomedical Corporation, as a potent PCSK9/LDLR PPI inhibitor was utilised as the positive control. All the synthesised compounds were evaluated to be safe with low inhibitory ratios at the dose of 10 µM in the MTT assay (Tables 1–3). Then, in cell western (ICW) assay was performed to detect the LDLR level on the surface of HepG2 cells.
The HepG2 cell line was grown in a humidified incubator with 5% CO2 at 37 °C and cultured in DMEM-High glucose medium with 10% (v/v) heat-inactivation foetal bovine serum, 2 mM L-glutamine and 100 U/ml penicillin-streptomycin. The expression level of LDLR in HepG2 cells was determined by In-Cell Western (ICW) Assay as described previously. Briefly, cells were plated in a 96-well plate (2 × 10^4 cells per well) and cultured for more than 24 h, followed by washing with PBS and starving overnight in DMEM without FBS. HepG2 cells were treated with 4.0 μg/ml PCSK9 (K9) alone and the tested compounds with the presence of 4.0 μg/ml of K9, and vehicle (PBS) for 8 h. Then cells were washed with PBS one time and fixed in 4% paraformaldehyde for 20 min. Cells were washed 5 times with PBS, then were blocked with 5% BSA in PBS for 1 h. LDLR monoclonal Antibody solution (1:1000 in 5% BSA in PBS, 50.0 μL/well) was incubated overnight at 4 °C. Subsequently, the cells were washed 5 times with PBS. Goat anti-mouse IgG-HRP secondary antibody solution (1:2000 in 5% BSA in PBS, 50.0 μL/well) was added and incubated 1 h at RT. Then cells were washed 5 times with PBS and added with TMB substrate, then incubated at RT until desired colour was developed. 50.0 μL/well of 2 M H2SO4 were added to stop the reaction and the absorbance at 450 nm was measured using a plate reader (EnSpire, Perkin Elmer Corporation).

Results on 17 molecules are retold here after paper PMC9307114, “Discovery and SAR analysis of phenylbenzo[d][1,3]dioxole-based proprotein convertase subtilisin/kexin type 9 inhibitors” (Journal of Enzyme Inhibition and Medicinal Chemistry, 2022).

Sequence of PCSK9/LDLR PPI (Q8NBP7 153-692): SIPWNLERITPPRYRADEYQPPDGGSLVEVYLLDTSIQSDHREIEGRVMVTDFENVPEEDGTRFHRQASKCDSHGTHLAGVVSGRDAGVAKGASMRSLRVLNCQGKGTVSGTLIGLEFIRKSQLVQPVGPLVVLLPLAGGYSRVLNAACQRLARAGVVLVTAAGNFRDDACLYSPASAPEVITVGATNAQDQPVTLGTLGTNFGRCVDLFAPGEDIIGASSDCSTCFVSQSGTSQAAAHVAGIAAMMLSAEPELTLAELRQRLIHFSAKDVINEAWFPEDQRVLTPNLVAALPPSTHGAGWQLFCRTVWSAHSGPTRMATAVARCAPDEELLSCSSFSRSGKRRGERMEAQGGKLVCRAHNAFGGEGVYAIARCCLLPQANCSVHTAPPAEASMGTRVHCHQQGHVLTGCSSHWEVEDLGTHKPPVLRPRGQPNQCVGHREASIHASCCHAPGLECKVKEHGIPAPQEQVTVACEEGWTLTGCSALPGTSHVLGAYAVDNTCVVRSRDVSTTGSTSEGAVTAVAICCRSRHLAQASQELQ
Sequence of PCSK9/LDLR PPI (Q8NBP7 31-152 partner limits assumed): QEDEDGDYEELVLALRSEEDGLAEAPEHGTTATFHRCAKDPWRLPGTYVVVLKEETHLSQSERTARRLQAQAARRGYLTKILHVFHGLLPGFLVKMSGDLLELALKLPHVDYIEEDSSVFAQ

Consider `COc1cc(NC(=O)c2ccc(-c3cc4c(cc3NC(=O)c3ccc(CCl)cc3)OCO4)cc2)cc(OC)c1OC` [A12, 4-(Chloromethyl)-N-(6-(4-((3,4,5-trimethoxyphenyl)carbamoyl)phenyl)benzo[d][1,3]dioxol-5-yl)benzamide], for which the inhibition at 10 µM in assay [1] amounted to 7.85 ± 0.25%; in assay [3], 45.1 ± 0.12%. Besides, the “LDL uptake of HepG2 cells” value in assay [2] (5 µM compound with 4.0 μg/ml PCSK9) stood at 32.78%; in assay [2] (10 µM compound with 4.0 μg/ml PCSK9) it was 44.80%. For the same molecule, the IC50 in assay [3] (dose-dependent IC50 plot, Figure 3, read-out: PCSK9 IC50 (inhibition of PCSK9/LDLR PPI)) turned out to be 70.8 µM. Further, the “effect on LDLR protein level (in words)” value in assay [4] is given as “restored the LDLR protein level in a dose dependent manner”.
On to `CCc1ccc(N2CCN(C(=O)c3ccc(-c4cc5c(cc4NC(=O)c4ccc(CCl)cc4)OCO5)cc3)CC2)cc1` [B15, 4-(Chloromethyl)-N-(6-(4-(4-(4-ethylphenyl)piperazine-1-carbonyl)phenyl)benzo[d][1,3]dioxol-5-yl)benzamide], for which the inhibition at 10 µM in assay [1] amounted to 8.91 ± 0.62%; in assay [3] it was 7.22 ± 0.71%.
With `O=C(Nc1cc2c(cc1-c1ccc(C(=O)N3CCN(c4ccc(Cl)cc4)CC3)cc1)OCO2)c1ccc(CCl)cc1` [B16, 4-(Chloromethyl)-N-(6-(4-(4-(4-chlorophenyl)piperazine-1-carbonyl)phenyl)benzo[d][1,3]dioxol-5-yl)benzamide], the values for the inhibition at 10 µM in assay [1] and in assay [3] were 10.2 ± 0.91% and 7.94 ± 0.03%, respectively.
Take `O=C(Nc1cc2c(cc1-c1ccc(C(=O)N3CCN(c4ccc(F)cc4)CC3)cc1)OCO2)c1ccc(CCl)cc1` [B17, 4-(Chloromethyl)-N-(6-(4-(4-(4-fluorophenyl)piperazine-1-carbonyl)phenyl)benzo[d][1,3]dioxol-5-yl)benzamide]: the inhibition at 10 µM amounted to 16.4 ± 1.18% in assay [1] and 4.07 ± 0.25% in assay [3].
With `CCN1CCN(C(=O)c2ccc(-c3cc4c(cc3NC(=O)c3ccc(CCl)cc3)OCO4)cc2)CC1` [B18, 4-(Chloromethyl)-N-(6-(4-(4-ethylpiperazine-1-carbonyl)phenyl)benzo[d][1,3]dioxol-5-yl)benzamide], the inhibition at 10 µM in assay [1] is 6.76 ± 0.26%; in assay [3], 5.66 ± 0.02%.
As for `CC(C)N1CCN(C(=O)c2ccc(-c3cc4c(cc3NC(=O)c3ccc(CCl)cc3)OCO4)cc2)CC1` [B19, 4-(Chloromethyl)-N-(6-(4-(4-isopropylpiperazine-1-carbonyl)phenyl)benzo[d][1,3]dioxol-5-yl)benzamide], the results for the inhibition at 10 µM in assay [1] and in assay [3] were 8.38 ± 0.81% and 5.82 ± 0.31%, respectively.
In the case of `CC(C)NC(=O)c1ccc(-c2cc3c(cc2NC(=O)c2ccc(CCl)cc2)OCO3)cc1` [B20, 4-(Chloromethyl)-N-(6-(4-(isopropylcarbamoyl)phenyl)benzo[d][1,3]dioxol-5-yl)benzamide], the values for the inhibition at 10 µM in assay [1] and in assay [3] were 9.55 ± 0.43% and 3.15 ± 0.13%, respectively.
For `COCc1ccc(C(=O)Nc2cc3c(cc2-c2ccc(C(=O)Nc4cc(OC)cc(OC)c4)cc2)OCO3)cc1` [C1, N-(3,5-dimethoxyphenyl)-4-(6-(4-(methoxymethyl)benzamido)benzo[d][1,3]dioxol-5-yl)benzamide] the same measures were 6.21 ± 0.22% and 21.6 ± 1.67%.
For the molecule `COCc1ccc(C(=O)Nc2cc3c(cc2-c2ccc(C(=O)N4CCN(C(=O)OC(C)(C)C)CC4)cc2)OCO3)cc1` [C2, Tert-butyl4-(4-(6-(4-(methoxymethyl)benzamido)benzo[d][1,3]dioxol-5-yl)benzoyl)piperazine-1-carboxylate], the inhibition at 10 µM in assay [1] was determined as 13.5 ± 1.13%; in assay [3] it was 17.8 ± 1.24%.
Consider `COCc1ccc(C(=O)Nc2cc3c(cc2-c2ccc(C(=O)N4CCN(c5ccc(OC)cc5)CC4)cc2)OCO3)cc1` [C3, 4-(Methoxymethyl)-N-(6-(4-(4-(4-methoxyphenyl)piperazine-1-carbonyl)phenyl)benzo[d][1,3]dioxol-5-yl)benzamide], for which the figures for the inhibition at 10 µM in assay [1] and in assay [3] were 6.62 ± 0.45% and 25.3 ± 2.11%, respectively.
As for `COCc1ccc(C(=O)Nc2cc3c(cc2-c2ccc(C(=O)N4CCN(c5ccccc5OC)CC4)cc2)OCO3)cc1` [C4, 4-(Methoxymethyl)-N-(6-(4-(4-(2-methoxyphenyl)piperazine-1-carbonyl)phenyl)benzo[d][1,3]dioxol-5-yl)benzamide], the figures for the inhibition at 10 µM in assay [1] and in assay [3] were 6.77 ± 0.62% and 7.55 ± 0.71%, respectively.
Taken in the same sequence, the figures for `COCc1ccc(C(=O)Nc2cc3c(cc2-c2ccc(C(=O)N4CCN(CCc5ccccc5)CC4)cc2)OCO3)cc1` [C5, 4-(Methoxymethyl)-N-(6-(4-(4-phenethylpiperazine-1-carbonyl)phenyl)benzo[d][1,3]dioxol-5-yl)benzamide] were 5.63 ± 0.37% and 5.92 ± 0.32%.
As for `COCc1ccc(C(=O)Nc2cc3c(cc2-c2ccc(C(=O)N4CCN(c5ccccc5)CC4)cc2)OCO3)cc1` [C6, 4-(Methoxymethyl)-N-(6-(4-(4-phenylpiperazine-1-carbonyl)phenyl)benzo[d][1,3]dioxol-5-yl)benzamide], the values for the inhibition at 10 µM in assay [1] and in assay [3] were 6.15 ± 0.26% and 3.39 ± 1.67%, respectively.
As to `COCc1ccc(C(=O)Nc2cc3c(cc2-c2ccc(C(=O)N4CCN(c5ccc(F)cc5)CC4)cc2)OCO3)cc1` [C7, N-(6-(4-(4-(4-fluorophenyl)piperazine-1-carbonyl)phenyl)benzo[d][1,3]dioxol-5-yl)-4-(methoxymethyl)benzamide], the inhibition at 10 µM in assay [1] came out at 12.8 ± 1.07%; in assay [3], 33.4 ± 1.52%.
With `COCc1ccc(C(=O)Nc2cc3c(cc2-c2ccc(C(=O)N4CCN(c5ccc(Cl)cc5)CC4)cc2)OCO3)cc1` [C8, N-(6-(4-(4-(4-chlorophenyl)piperazine-1-carbonyl)phenyl)benzo[d][1,3]dioxol-5-yl)-4-(methoxymethyl)benzamide], the results for the inhibition at 10 µM in assay [1] and in assay [3] were 14.5 ± 1.22% and 25.7 ± 1.2%, respectively.
`COCc1ccc(C(=O)Nc2cc3c(cc2-c2ccc(C(=O)Nc4ccc(N5CCN(C)CC5)cc4)cc2)OCO3)cc1` [C9, 4-(Methoxymethyl)-N-(6-(4-((4-(4-methylpiperazin-1-yl)phenyl)carbamoyl)phenyl)benzo[d][1,3]dioxol-5-yl)benzamide]: the results for the inhibition at 10 µM in assay [1] and in assay [3] were 6.22 ± 0.24% and 3.75 ± 0.33%, respectively.
For `COCc1ccc(C(=O)Nc2cc3c(cc2-c2ccc(C(=O)NC(C)C)cc2)OCO3)cc1` [C10, N-isopropyl-4-(6-(4-(methoxymethyl)benzamido)benzo[d][1,3]dioxol-5-yl)benzamide] the same measures were 6.76 ± 0.18% and 5.48 ± 0.2%.
